Experimental findings from PubChem BioAssay (NCI) are described below.

Common to all, as to experiment: NCI tumour cell line growth inhibition, 48 h
Test [1] deals with M14 melanoma.
Test [2] has as its system OVCAR-5 ovarian.
In test [3] the test system is HS 578T breast.
The test system of test [4] is RPMI-8226 leukemia.
Test [5] has as its system HOP-92 NSCLC.
Test [6] has as its system SNB-75 CNS.
The subject of test [7] is EKVX NSCLC.
The subject of test [8] is SK-MEL-2 melanoma.

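Five compound concentrations were applied to cells in 96-well plates for 48 hours; endpoints were derived by simple linear interpolation of the resulting dose-response curve. GI50 is the concentration that inhibits growth by half. TGI: concentration producing complete growth inhibition.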 A value given as a limit tells only on which side of the number the result lay.

In the case of `Nc1ccn([C@H]2C[C@@H](O)[C@@H](CO)S2)c(=O)n1`, the GI50 was greater than 100 µM in test [1]; greater than 100 µM in test [2]; greater than 100 µM in test [3]; greater than 100 µM in test [4]; greater than 100 µM in test [5]; greater than 44 µM in test [6]. Moreover, the GI50 in test [7] and in test [8] was greater than 100 µM throughout. In addition, the TGI in test [1], in test [2], in test [3], in test [4], in test [5] and in test [6] was greater than 100 µM in each case. The TGI in test [7] and in test [8] was greater than 100 µM in each case.
As to `O=C(O)c1cc2ccccc2c(N=Nc2c([N+](=O)[O-])cc([N+](=O)[O-])cc2S(=O)(=O)O)c1O`, the TGI in test [1], in test [2], in test [3], in test [4], in test [5] and in test [6] was greater than 100 µM in each case. In addition, the TGI in test [7] and in test [8] was greater than 100 µM throughout.
`NC1=NC(c2ccccc2)N=C(Nc2ccccc2)N1` (stereo not drawn): the GI50 in test [1] was greater than 100 µM; in test [2] it was greater than 100 µM; in test [3] it was 68.5 µM; in test [4], greater than 100 µM; in test [5], greater than 100 µM; in test [6] it was 34.8 µM. In addition, the GI50 in test [7] and in test [8] was greater than 100 µM in each case. Besides, the TGI in test [1], in test [2], in test [3], in test [4], in test [5] and in test [6] was greater than 100 µM each time. Moreover, the TGI in test [7] and in test [8] was greater than 100 µM each time.
Regarding `O=C1C(Cl)=C(Nc2ccc3cn[nH]c3c2)C(=O)c2ccccc21`, the GI50 in test [1] is 1.59 µM; in test [2], 1.8 µM; in test [3], 0.5 µM; in test [4], 0.31 µM; in test [5] it was 1.57 µM; in test [6] it was 1.67 µM. The GI50 is 1.5 µM in test [7] and 1.71 µM in test [8]. In addition, the TGI in test [1] worked out at 3.01 µM; in test [2], 3.21 µM; in test [3], 3.88 µM; in test [4], 2.43 µM; in test [5] it was 3 µM; in test [6], 3.03 µM. Further, the TGI in test [7] is 4.6 µM; in test [8], 3.54 µM.
In the case of `Nc1nc2ccc([C@@H]3Nc4ccc5[nH]ncc5c4[C@H]4[C@H]5CCC(C5)[C@H]43)cc2s1`, the GI50 in test [1] was 0.654 µM; in test [2] it was 1.83 µM; in test [3], 1.39 µM; in test [4], 1.39 µM; in test [5] it was 1.67 µM; in test [6], 0.319 µM. The GI50 in test [7] was 1.47 µM; in test [8], 1.82 µM. Besides, the TGI in test [1] was 2.62 µM; in test [2], 4.41 µM; in test [3], 4.4 µM; in test [4] it was 5.3 µM; in test [5] it was 11.8 µM; in test [6], 2.47 µM. In addition, the TGI is 4.92 µM in test [7] and 6.79 µM in test [8].
Consider `O=C1C=CC(=O)C1(Br)Br`, for which the TGI in test [1] turned out to be 38.1 µM; in test [2], 25.3 µM; in test [3], 50.1 µM; in test [4], 20.1 µM; in test [5], 40.9 µM; in test [6] it was 24.5 µM. Further, the TGI in test [7] is 29.7 µM; in test [8], 31.4 µM.
On to `CCCCCCCCOc1ccc(/C=N/Nc2cc(C)nc3ccc(Cl)cc23)cc1`, for which the GI50 was 1.75 µM in test [1]; 1.79 µM in test [2]; 2.23 µM in test [3]; 2.01 µM in test [4]; 1.51 µM in test [5]; 1.86 µM in test [6]. Also, the GI50 in test [7] is 1.8 µM; in test [8] it was 1.97 µM. Moreover, the TGI in test [1] is 3.51 µM; in test [2], 3.2 µM; in test [3] it was 4.51 µM; in test [4], 4.63 µM; in test [5], 3.02 µM; in test [6], 3.49 µM. The TGI turned out to be 3.33 µM in test [7] and 3.59 µM in test [8].
Take `COc1cc2c3c(n(CCCN)c(=O)c2cc1OC)-c1ccc(F)cc1C3=O`: the GI50 is 1.44 µM in test [1]; 10.4 µM in test [2]; 6.49 µM in test [3]; 0.605 µM in test [4]; 8.91 µM in test [5]; 11.1 µM in test [6]. Besides, the GI50 was 11.6 µM in test [7] and 17 µM in test [8]. Moreover, the TGI worked out at 11.4 µM in test [1]; 22.7 µM in test [2]; 13.6 µM in test [3]; 2.71 µM in test [4]; 42.9 µM in test [5]; 27 µM in test [6]. The TGI is 25.1 µM in test [7] and 34.7 µM in test [8].
For `N#CC1C(=N)Cc2ccccc2-c2ccccc21` (stereo not drawn), the GI50 was 2.74 µM in test [1]; 9.04 µM in test [2]; 5.38 µM in test [3]; 9.03 µM in test [4]; 10 µM in test [5]; 2.76 µM in test [6]. For the same molecule, the GI50 in test [7] was 4.37 µM; in test [8] it was 12 µM. For the same molecule, the TGI was 10.3 µM in test [1]; greater than 100 µM in test [2]; 65.3 µM in test [3]; greater than 100 µM in test [4]; 36.6 µM in test [5]; 9.81 µM in test [6]. The TGI in test [7] was greater than 100 µM; in test [8], 28.7 µM.
For `O=C1c2ccccc2S(=O)(=O)N1CSC(=S)N1CCCC1`, the GI50 in test [1] is greater than 100 µM; in test [2], greater than 100 µM; in test [3] it was greater than 100 µM; in test [5] it was greater than 100 µM; in test [6], greater than 48 µM; in test [7] it was greater than 100 µM. In test [8], the GI50 is greater than 100 µM. Also, the TGI in test [1] was greater than 100 µM; in test [2] it was greater than 100 µM; in test [3], greater than 100 µM; in test [4], greater than 36 µM; in test [5], greater than 100 µM; in test [6] it was greater than 100 µM. Moreover, the TGI in test [7] and in test [8] was greater than 100 µM throughout.
